Values of other authors in patent US6797829B1, “Synthesis of a novel paramagnetic amino derivative (epm-5) for labelling chemical and biological macromolecules” (Conselho Nacional de Desenvolvimento Cientifico e …, priority 1999, dated 2004).
Like-named read-outs stand apart in the source and are kept apart here.

CC1(C)CC(N)(C(=O)O)CC(C)(C)N1[O] [Toac, 2,2,6,6tetramethylpiperidine-1-oxyl-4-amine-4-carboxylic acid]
pKa of the amine group (in free state): 8
pKa of the amine group (when bound to the N-terminal portion of a peptide chain): about 5.5
